Results on 16 compounds are retold here after patent US11993574B2, “Pyrazole and imidazole compounds for inhibition of IL-17 and RORgamma” (REATA PHARMACEUTICALS, INC., priority 2018, dated 2024).

Holding throughout (type): cell-based
Assay [1] has as its system Nrf2 transcription factor. Kind of assay: AREc32 luciferase reporter assay. The settings on record: Homo sapiens; AREc32 cells, 19 hours; concentration required to increase GST ARE luciferase reporter activity by 2-fold; read-out: NRF2 ARE 2-Fold (EC2×). An excerpt: A. AREc32 Luciferase Reporter Assay
The AREc32 luciferase reporter assay allows for quantitative assessment of the endogenous activity of the Nrt2 transcription factor in cultured mammalian cells. AREc32 cells are derived from MCF-7 human breast carcinoma cells that were stably transfected with a reporter construct that contains the firefly luciferase gene located downstream of eight copies of the rat GSTA2 antioxidant response element (ARE) sequence (Wang et al., 2006; Concept Life Sciences Integrated Discovery and Development Services Ltd (CLSIDDS)). Active Nrf2 binds to the ARE sequences and increases expression of the firefly luciferase gene. To assess the Nrf2-activating potential of the test compounds, AREc32 cells were plated in black […] plates at a density of 20,000 cells per well in triplicate in DMEM+10% FBS+0.8 mg/mL Geneticin and incubated at 37° C. with 5% CO2 in a humidified atmosphere. The next day, cells were treated with DMSO (vehicle) or test compound (concentration ranges of 0.4-200 nM or 3.9-2000 nM) for 19 hours. Luciferase activity was determined using the ONE-Glo Luciferase assay (Promega). The luminescence signal was measured on a BMG Pherastar microplate reader. The mean luminescence value from test compound-treated wells was normalized to that from DMSO-treated wells and was represented as fold-induction. Data were analyzed using GraphPad Prism version 6.00 for Windows, GraphPad Software, La Jolla Calif. USA. A non-linear regression curve with log (agonist) vs. response using a variable slope was used to fit the data. Where applicable, a maximum threshold value of 50-fold over DMSO was set. EC2× values were interpolated from the curve. EC2× corresponds to the concentration of test compound required to increase GST ARE Luciferase reporter activity by 2-fold.

Assay [2] deals with T1, Human RAR-related Orphan Receptor Gamma (RORγ) (Homo sapiens, UniProt P51449).
T1 sequence (P51449 269-508 limits assumed): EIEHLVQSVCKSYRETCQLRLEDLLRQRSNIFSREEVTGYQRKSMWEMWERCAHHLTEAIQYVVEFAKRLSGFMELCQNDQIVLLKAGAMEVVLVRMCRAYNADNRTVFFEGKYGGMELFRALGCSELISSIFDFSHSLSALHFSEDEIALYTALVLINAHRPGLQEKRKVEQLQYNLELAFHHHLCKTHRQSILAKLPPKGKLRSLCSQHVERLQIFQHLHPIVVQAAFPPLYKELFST
Nature of the assay: RORγ assay (GAL4-RORγ hybrid luciferase reporter, Indigo Biosciences). The settings on record: inverse-agonist activity, GAL4-RORγ reporter cells, 23 hours. An excerpt:
B. RORγ Assay and Cell Viability
The RORγ assay system was purchased from Indigo Biosciences. This nuclear receptor assay utilizes a human cell line that has been engineered to express a hybrid form of the Human RAR-related Orphan Receptor Gamma (RORγ) at high levels. The N-terminal DNA binding domain (DBD) of the native RORγ receptor was substituted with the yeast GAL4-DBD to generate the GAL4-RORγ hybrid nuclear receptor. The reporter cell line is transfected with a plasmid that encodes the beetle luciferase gene under the control of the GAL4 upstream activating sequence (UAS). GAL4 binds to the UAS and increases transcription of downstream target genes. The GAL4-RORγ hybrid is constitutively active; therefore, the principle application of this reporter assay system is to screen test compounds to quantify inverse-agonist activities against human RORγ. Because the ligand binding domain (LBD) of RORγ is identical to the LBD of RORγt, this assay is an accurate surrogate for evaluating activity of experimental ligands against RORγt. To assess the RORγ inverse-agonist activity of the test compounds, reporter cells were plated in white 96-well plates in triplicate and were treated with DMSO (vehicle) or test compound (concentration ranges of 7.8-2000 nM) at 37° C. with 5% CO2 in a humidified atmosphere for 23 hours. After this incubation, luciferin was added to the wells and luciferase activity was determined by measuring the luminescence signal using a BMG Pherastar microplate reader. Viability was determined using the Live Cell Multiplex Assay (Indigo Biosciences). Values from test compound samples were normalized to those from DMSO-treated samples. Data were analyzed using GraphPad Prism version 6.00 for Windows (GraphPad Software, La Jolla Calif. USA). A non-linear regression analysis with log (inhibitor) vs. normalized response using a variable slope was applied to fit the data and determine the IC50 values for inhibition of RORγ and cell viability. Inhibition that is closely correlated with reduced viability is considered to be non-specific.

Assay [3] deals with IL-17A. Nature of the assay: IL-17 release from differentiated primary human T-cells (IL-17A HTRF assay). The settings on record: primary human CD4+ T cells differentiated into Th17 cells, 45-hour incubation, IL-17A in supernatant; read-out: hIL17 IC50. As to the method: C. IL-17 Release from Differentiated Primary Human T-Cells and Cell Viability
Primary human cryopreserved CD4+ T Cells (Lonza) were thawed according to the manufacturer's recommendations and plated either in Lymphocyte Growth Medium-3 (LGM-3) or X-VIVO 20 media (Lonza) in 96-well tissue culture plates at a density of ˜2×10^5 cells per well, and allowed to recover for approximately 4 hours at 37° C. with 5% CO2 in a humidified atmosphere. After the recovery step, DMSO (vehicle) or test compound at doses ranging from 2 to 500 nM or 4 to 1000 nM in a three-fold dilution series was added to the cells. Three replicate wells were tested for each treatment condition. Final DMSO concentration in each well was 0.1%. Immediately after treatment, CD4+ T cells were activated by adding Dynabeads Human T-Activator CD3/CD28 (Life Technologies; bead-to-cell ratio of 1:2.5) and differentiated into Th17 cells by adding a mixture of the following cytokines: transforming growth factor-β (TGF-β, 5 ng/mL), IL-6 (20 ng/mL), IL-23 (20 ng/mL), and IL-1β (10 ng/mL). Undifferentiated control cells received only cytokine IL-2 (50 ng/mL). All human recombinant cytokines were purchased from R&D Systems. Following a 45-hour incubation at 37° C. with 5% CO2 in a humidified atmosphere, the plates were centrifuged for 3 minutes at 250×g, and half of the supernatant was transferred to anew plate to be used in the IL-17A assay (see below). Cell viability was assessed in the original plate using the CyQuant Direct Assay (Life Technologies). CyQuant reagent (an amount equal to 10% of remaining media volume) was added to the wells, and the plates were then incubated at 37° C. for 75 min. Fluorescence was read on a SpectraMax M2e spectrophotometer at 480 nm (excitation) and 535 nm (emission) wavelengths. CyQuant values from test compound samples were normalized to those from DMSO-treated samples. The concentration of IL-17A in the supernatant was measured using the Homogeneous Time-Resolved Fluorescence (HTRF) assay (Cisbio Bioassays) according to the manufacturer's protocol. The assay was performed at room temperature in low volume, solid white 384-well plates (Greiner Bio-One). Samples and standards (serially-diluted human recombinant IL-17A (0 to 5,000 pg/mL concentration range; Cisbio Bioassays) were incubated with the anti-human IL-17A antibody conjugates (the HTRF donor and acceptor pair) for 16 hours and fluorescence was measured using a Pherastar FS microplate reader (BMG Labtech) in the HTRF mode (excitation at 337 nm and emission at 665 nm and 620 nm). IL-17A levels were assessed in duplicate aliquots of supernatant from each well resulting in a total of six readings per test condition. The 665 nm/620 nm signal ratio was calculated and the concentration of IL-17A in each sample was determined by interpolation from the standard curve. The amount of IL-17A from test compound treated samples were normalized to that of the vehicle-treated samples, set to 100%. Data were analyzed using GraphPad Prism (GraphPad Software, La Jolla California USA). Concentrations of test compound were transformed by taking the logarithm of each concentration used. The IC50 values for compound-mediated reduction in IL-17A levels and cell viability were determined by non-linear regression analysis using the log(inhibitor) vs. normalized response with variable slope equation. Inhibition that is closely correlated with reduced viability is considered to be non-specific.

Take `C[C@H]1C(=O)C(C#N)=C[C@@]2(C)c3c(c(-c4ccccc4F)nn3-c3ccc(-c4ccncn4)cc3)CC[C@H]12` [T93]: in assay [1], the EC (2-fold) was found to be 0.139 µM. The IC50 turned out to be 0.042 µM in assay [2] and 0.037 µM in assay [3].

Consider `C[C@H]1C(=O)C(C#N)=C[C@@]2(C)c3c(c(-c4ccccc4F)nn3-c3nc4ccccc4n3C)CC[C@H]12` [T90], for which the EC (2-fold) in assay [1] came to 1.31 µM. In addition, the concentration for half-maximal inhibition (IC50) was 0.135 µM in assay [2] and 0.057 µM in assay [3].

On to `C[C@H]1C(=O)C(C#N)=C[C@@]2(C)c3nc(-c4ccc(N(C)C)cc4)n(-c4cccc(F)c4)c3CC[C@H]12` [T132], for which, in assay [1], the EC (2-fold) stood at 1.02 µM. Moreover, the IC50 was 0.11 µM in assay [2] and 0.114 µM in assay [3].

For `Cc1ccc(-n2nc(-c3ccccc3)c3c2[C@]2(C)C=C(C#N)C(=O)[C@H](C)[C@H]2CC3)cn1` [T32], the EC (2-fold) in assay [1] turned out to be 0.258 µM. Moreover, the IC50 in assay [2] was 0.124 µM; in assay [3] it was 0.17 µM.

`Cc1ccc(-c2ccc(-n3nc(-c4ccccc4)c4c3[C@]3(C)C=C(C#N)C(=O)[C@H](C)[C@H]3CC4)cc2)cc1` [T41]: the EC (2-fold) in assay [1] was found to be 0.249 µM. The IC50 in assay [2] turned out to be 0.083 µM; in assay [3], 0.025 µM.

Take `C[C@H]1C(=O)C(C#N)=C[C@@]2(C)c3c(c(-c4ccccc4)nn3-c3ccccc3)CC[C@H]12` [T11]: the EC (2-fold) in assay [1] was 0.107 µM. Moreover, the IC50 in assay [2] stood at 0.073 µM; in assay [3] it was 0.111 µM.

In the case of `C[C@H]1C(=O)C(C#N)=C[C@@]2(C)c3c(c(-c4ccc(F)cc4)nn3-c3ccc(-c4cncc(F)c4)cc3)CC[C@H]12` [T105], the EC (2-fold) in assay [1] turned out to be 0.361 µM. The results for the IC50 in assay [2] and in assay [3] were 0.067 µM and 0.021 µM, respectively.

Regarding `C[C@H]1C(=O)C(C#N)=C[C@@]2(C)c3c(c(C4CC4)nn3-c3ccc(-c4ccccc4)cc3)CC[C@H]12` [T75], the EC (2-fold) in assay [1] was determined as 0.248 µM. In addition, the values for the IC50 in assay [2] and in assay [3] were 0.068 µM and 0.13 µM, respectively.

Regarding `C[C@H]1C(=O)C(C#N)=C[C@@]2(C)c3c(c(-c4ccncn4)nn3-c3ccc(-c4ccccc4)nc3)CC[C@H]12` [T64], the EC (2-fold) in assay [1] came out at 0.636 µM. Moreover, the IC50 in assay [2] turned out to be 0.122 µM; in assay [3], 0.144 µM.

For `C[C@H]1C(=O)C(C#N)=C[C@@]2(C)c3c(c(-c4ccncn4)nn3-c3ccc(C(F)(F)F)cn3)CC[C@H]12` [T63], in assay [1], the EC (2-fold) was 0.725 µM. The IC50 is 0.201 µM in assay [2] and 0.151 µM in assay [3].

Regarding `Cc1nc(-c2ccc(-n3nc(-c4cccnc4)c4c3[C@]3(C)C=C(C#N)C(=O)[C@H](C)[C@H]3CC4)cc2)no1` [T184], the EC (2-fold) in assay [1] came to 0.398 µM. Also, the IC50 in assay [2] came to 0.116 µM; in assay [3], 0.076 µM.

On to `C[C@H]1C(=O)C(C#N)=C[C@@]2(C)c3c(c(-c4ccc(F)cc4)nn3-c3ccc(-c4ccccc4)cc3)CC[C@H]12` [T65], for which, in assay [1], the EC (2-fold) turned out to be 0.201 µM. For the same compound, the results for the IC50 in assay [2] and in assay [3] were 0.077 µM and 0.012 µM, respectively.

Turning to `C[C@H]1C(=O)C(C#N)=C[C@@]2(C)c3c(c(-c4ccccc4)nn3-c3cccc(-c4ccccc4)c3)CC[C@H]12` [T35], the EC (2-fold) in assay [1] came to 0.328 µM. Further, the IC50 in assay [2] came to 0.129 µM; in assay [3] it was 0.058 µM.

As for `Cc1cc(-c2ccc(-n3nc(-c4ccncn4)c4c3[C@]3(C)C=C(C#N)C(=O)[C@H](C)[C@H]3CC4)cc2)cnn1` [T176], in assay [1], the EC (2-fold) amounted to 0.979 µM. Besides, the IC50 in assay [2] was determined as 0.12 µM; in assay [3], 0.129 µM.

Regarding `CC(C)c1ccc(-c2nc3c(n2Cc2ccccn2)CC[C@@H]2[C@@H](C)C(=O)C(C#N)=C[C@@]32C)cc1` [T170], the EC (2-fold) in assay [1] is 0.602 µM. Moreover, the IC50 in assay [2] amounted to 0.103 µM; in assay [3], 0.072 µM.

Turning to `C[C@H]1C(=O)C(C#N)=C[C@@]2(C)c3nn(-c4ccncc4)c(-c4ccc(F)cc4)c3CC[C@H]12` [T122], the EC (2-fold) in assay [1] amounted to 0.441 µM. Also, the IC50 in assay [2] is 0.097 µM; in assay [3], 0.246 µM.
